Results on 1 compound are retold here after patent US20190070139A1, “AGENT FOR IMPROVING PHYSICAL FITNESS” (AJINOMOTO CO., INC, priority 2016, published 2019).

Structures are written as SMILES.

The test system of assay [1] is male CD2F1 mice. The assay is described as follows: Treadmill running until exhaustion (endurance capacity). Format: in vivo, mouse. Here is the method: 6-Week-old male CD2F1 mice (CHARLES RIVER LABORATORIES JAPAN, INC.) were divided into 3 groups of a group with ingestion of a normal diet (AIN-93G composition) and without exercise (non-exercise group), a group with ingestion of a normal diet and with exercise (exercise group), and a group with ingestion of a diet containing 2 wt % cystine (free form), which was prepared by replacing casein in the normal diet with cystine, and with exercise (exercise+2% cystine group). Each group ingested a test diet (normal diet or normal diet containing 2 wt % cystine) for 8 days. Thereafter, the exercise group and the exercise+2% cystine group were made to run on a treadmill until exhaustion for 3 consecutive days, and the running time until then was measured (FIG. 1). […] On the next day after completion of the 3-day running, the muscle of the mice in each group was collected, and the amount of glycogen in the muscle was measured. […] Thereafter, the mice were forced to run until exhaustion under the exercise conditions similar to those in Experimental Example 1, and the running time then was measured. […] The next day, the mice were made to run until exhaustion under the exercise conditions similar to those in Experimental Example 1, and the running time then was measured. The amount of increase in the running time was calculated as an endurance-improving effect. […]

Assay [2] deals with glycogen in gastrocnemius muscle. In words: Amount of glycogen in gastrocnemius muscle. Format: in vivo, mouse. The note with it: Experimental Example 1; next day after 3-day continuous exercise; Ex+Cyt (2 wt % cystine diet) vs Ex. Here is the method: 6-Week-old male CD2F1 mice (CHARLES RIVER LABORATORIES JAPAN, INC.) were divided into 3 groups of a group with ingestion of a normal diet (AIN-93G composition) and without exercise (non-exercise group), a group with ingestion of a normal diet and with exercise (exercise group), and a group with ingestion of a diet containing 2 wt % cystine (free form), which was prepared by replacing casein in the normal diet with cystine, and with exercise (exercise+2% cystine group). Each group ingested a test diet (normal diet or normal diet containing 2 wt % cystine) for 8 days. Thereafter, the exercise group and the exercise+2% cystine group were made to run on a treadmill until exhaustion for 3 consecutive days, and the running time until then was measured (FIG. 1). The non-exercise group was fasted and deprived of water during running of the other two groups. On the next day after completion of the 3-day running, the muscle of the mice in each group was collected, and the amount of glycogen in the muscle was measured. The amount of glycogen in muscle was measured as follows. […] Glucose in this solution was detected and quantified using “glucose CII-Test Wako” (manufactured by Wako Pure Chemical Industries, Ltd.). […] The groups with exercise were forced to run in a treadmill until exhaustion for 2 consecutive days and the running time then was measured. […]

In the case of `NC(CSSCC(N)C(=O)O)C(=O)O` (stereo not drawn) [cystine, 3,3′-dithiobis(2-aminopropanoic acid)], the “amount of increase in the running time by exercise” value in assay [1] (Experimental Example 1, diet containing 2 wt % cystine for 8 days, then running until exhaustion for 3 consecutive days, Ex+Cyt vs Ex (normal diet)) is “significantly (P<0.05 or P<0.01) higher”. In addition, the “amount of increase in the running time” value in assay [1] (Experimental Example 2, 2 wt % cystine diet given for one day after exercise on day 1, day 2 minus day 1, Ex+Cyt vs Ex) is recorded as “tended to be higher”. Further, in assay [2], the “amount of glycogen in gastrocnemius muscle” value is “further significantly (P<0.05) increased”.
